Assay results: US20220168314A1, “MEDICAMENT FOR PROPHYLAXIS OR TREATMENT OF PULMONARY FIBROSIS” (MITSUBISHI TANABE PHARMA CORPORATION, priority 2019, published 2022)

Tests used:
[1] = system: bleomycin intra airway administration induced mouse pulmonary fibrosis model; assay: Lung pathological tissue (picrosirius red staining, hydroxyproline content), Example 1; assay type: in vivo; settings: Day 21, compound (I) 10 mg/kg once a day, eplerenone 50 mg/kg twice a day; for positive rate (PSR Positive %) in picrosirius red staining: left lung lobes; for hydroxyproline content (μg): lower lung lobes and middle lung lobe
Description: (§1) C57/BL6NTAC mice (male; body weight at start of a test: 25 g) (manufactured by The Jackson Laboratory) were grouped into the following 4 groups (12 mice in each group):
(§2) Group 1: normal group Group 2: no drug administration group (control group) Group 3: drug (the compound (I)) administration group Group 4: drug (eplerenone; positive control) administration group
(§3) On a day (Day 0) when the test was started, bleomycin (3.25 U/kg) was administered dropwise through airways to the mice of Groups 2-4 as test groups. Instead of bleomycin, saline was administered dropwise through airways to the mice of Group 1 as a normal group. On a seventh day (Day 7) after the start of the test, with a dosing schedule of twice a day in the morning and afternoon, oral gavage administration (twice in the morning and afternoon) of a vehicle (0.1% HCO60+0.5% CMC) was started for the mice of Groups 1 and 2; a 2 mg/ml solution of the compound (I) was prepared and oral gavage administration (in the morning) thereof at a dose of 10 mg/kg and oral gavage administration (in the afternoon) of a vehicle (0.1% HCO60+0.5% CMC) were started for the mice of Group 3; and oral gavage administration (twice in the morning and afternoon) of eplerenone at a dose of 50 mg/kg was started for the mice of Group 4. Thereafter, until a 21st day (Day 21) after the start of the test, the administrations were continued at the same dosing schedules. After the administrations were completed (Day 21), the following evaluation items were examined.
Pulmonary fibrosis is caused by that activated fibroblasts are accumulated at a fibrosis site and a large amount of type I collagen is produced. Therefore, based on a degree of collagen accumulation in a lung tissue, a degree of pulmonary fibrosis can be evaluated. Type I collagen and type III collagen in a tissue are stained by picrosirius red staining. Therefore, a situation of collagen accumulation can be image-diagnosed, and quantitative evaluation can also be performed by calculating a staining positive rate.
Specifically, the above staining was performed on a tissue section of the lungs, and an area of a stained site (fibrosis site) was measured and evaluated.
Hydroxyproline is a major component of collagen and is substantially absent in other proteins. Therefore, by measuring a content of hydroxyproline in a tissue, an amount of collagen can be evaluated.

CYP3A4 = CYP3A4 (Homo sapiens, UniProt P08684); settings: background statement; cited from earlier work
CYP3A4, sequence (P08684 whole entry): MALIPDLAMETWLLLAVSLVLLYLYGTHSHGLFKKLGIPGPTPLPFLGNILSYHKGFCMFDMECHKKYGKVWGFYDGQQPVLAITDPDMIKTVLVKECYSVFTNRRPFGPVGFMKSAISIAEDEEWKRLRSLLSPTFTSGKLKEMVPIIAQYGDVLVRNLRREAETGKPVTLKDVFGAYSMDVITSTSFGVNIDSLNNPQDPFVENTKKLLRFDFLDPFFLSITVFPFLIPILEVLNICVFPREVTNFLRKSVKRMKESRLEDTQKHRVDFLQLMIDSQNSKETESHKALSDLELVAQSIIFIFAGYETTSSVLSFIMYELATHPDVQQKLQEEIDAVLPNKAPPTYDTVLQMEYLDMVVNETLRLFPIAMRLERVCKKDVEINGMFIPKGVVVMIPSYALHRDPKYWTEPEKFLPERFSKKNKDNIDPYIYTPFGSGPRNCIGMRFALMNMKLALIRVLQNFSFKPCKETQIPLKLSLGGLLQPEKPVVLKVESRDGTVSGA

[2] = system: bleomycin intra airway administration induced mouse pulmonary fibrosis model; assay: Lung functions in bleomycin intra airway administration induced mouse pulmonary fibrosis model (Example 1); assay type: in vivo; settings: Day 21; oral gavage Day 7-21; compound (I) 10 mg/kg once a day, eplerenone 50 mg/kg twice a day; vs bleomycin control group
Description: as §1, §2, §3
The following evaluation items were measured using a commercially available respiratory and lung function evaluation system (measurement site: around an airway). Evaluation of 4 items including: 1) inspiratory capacity (mL); 2) compliance (mL/cmH2O); 3) elastance) (cmH2O/mL); and 4) resistance (cmH2O.s/mL)
The “inspiratory capacity” corresponds to an amount of air discharged from the lungs at a stage when slowly breathing out to an end of a breath has completed, and is an indicator of a volume of the lungs. As pulmonary fibrosis progresses and the lung hardens, the volume of the lungs shrinks, and the inspiratory capacity decreases.
The “compliance” indicates a change in a lung capacity due to a certain change in pressure. […] As pulmonary fibrosis progresses and the lungs harden, the volume of the lungs shrinks, and the compliance decreases.
The “elastance” is a value represented by a reciprocal of the compliance, and is an indicator representing the difficulty for the lungs to stretch. As pulmonary fibrosis progresses and the lungs harden, the elastance increases.
The “resistance” means an airway resistance. The resistance is a resistance received by an air current in respiration, and a larger resistance means that it is harder for air to flow through the airway.

[3] = system: gene expression associated with pulmonary fibrosis; assay: Gene expression fluctuation associated with pulmonary fibrosis (mRNA, real time PCR, upper lung lobes), Example 1; assay type: in vivo, mouse; settings: Day 21, compound (I) 10 mg/kg once a day, eplerenone 50 mg/kg twice a day
Description: as §1, §2, §3
(iii) Evaluation of Gene Expression Fluctuation Associated with Pulmonary Fibrosis (Quantification of mRNA; Fold Increase) (Upper Lung Lobes)
According to a conventional method, mRNA was extracted from a homogenized upper lung lobe, and an extremely small amount of the mRNA was quantified using a real time PCR system.

[4] = system: bleomycin-induced pulmonary fibrosis mice; settings: literature reports; cited from earlier work
[5] = Concentration of the compound (I) in blood plasma, Example 1; assay type: in vivo, mouse; settings: 10 mg/kg oral
Description: as §3, with “After the administrations were completed (Day 21), the following evaluation items were examined.” left out
At 2 hours (before the above evaluations) and at 18 hours from the final administration of the compound (I) (Day 21), a small amount of blood was collected from a tail vein under anesthesia, and plasma was separated with an ice-cooled centrifuge, and a concentration (nM) of the compound (I) in the plasma was measured using a conventional method.

[6] = Concentration of the compound (I) in blood plasma, Example 2; assay type: in vivo, mouse
Description: (§4) From an eighth day (Day 8) after the start of the test, oral gavage administration of a vehicle (0.1 ml per 10 g body weight) to the mice of Group 1 as the normal group and the mice of Group 2 as the no drug administration group was started, and, on the other hand, oral gavage administration of the compound (I) of a predetermined dosage to the mice of the drug administration groups of Groups 3-5 was started (for all groups, once a day in the morning). Thereafter, until a 21st day (Day 21) after the start of the test, the administrations were continued. After the administrations were completed, the following items were evaluated.
Evaluation of a concentration (nM) of the compound (I) in a blood plasma at 2 hours (before the above evaluations) and at 24 hours after the final administration (Day 21) (similar to Example 1, blood samples obtained by tail vain blood sampling were evaluated.)

[7] = system: bleomycin subcutaneous continuous infusion induced mouse pulmonary fibrosis model; assay: Lung pathological tissue (picrosirius red staining, hydroxyproline content), Example 2; assay type: in vivo; settings: for hydroxyproline content (μg): right lung lobes
Description: (§5) Body weights of the mice of the test group were measured daily, and, on the seventh day (Day 7) after the start of the test, the mice of the test group were randomly grouped as follows using an amount of decrease in body weight as an indicator.
(§6) Group 2: no drug administration group (control group) (12 mice) Group 3: drug (the compound (I), 3 mg/kg) administration group (12 mice) Group 4: drug (the compound (I), 10 mg/kg) administration group (12 mice) Group 5: drug (the compound (I), 30 mg/kg) administration group (12 mice)
as §4
i) Evaluation by Picrosirius Red Staining (Left Lung Lobes)
ii) Evaluation of Hydroxyproline Content (μg) (Right Lung Lobes)

[8] = system: bleomycin subcutaneous continuous infusion induced mouse pulmonary fibrosis model; assay: Lung functions in bleomycin subcutaneous continuous infusion induced mouse pulmonary fibrosis model (Example 2); assay type: in vivo
Description: as §5, §6, §4
Evaluation of 4 items including: 1) inspiratory capacity (mL); 2) compliance (mL/cmH2O); 3) elastance) (cmH2O/mL); and 4) resistance (cmH2O.s/mL)

[9] = 30 mg/kg oral once a day, Day 8-21 (Group 5)
[10] = 3, 10 and 30 mg/kg oral once a day, Day 8-21 (Groups 3-5), dose-dependent

Row | Compound | positive rate (PSR Positive %) in picrosirius red staining [1] | hydroxyproline content (μg) [1] | compliance (mL/cmH2O) [2] | elastance (cmH2O/mL) [2] | inspiratory capacity (mL) [2] | resistance (cmH2O.s/mL) [2] | CTGF gene expression [3] | Ccl2 gene expression [3] | PAI-1 gene expression [3] | TGFβ gene expression [3] | fibronectin gene expression [3] | type I collagen gene expression [3] | type III collagen gene expression [3] | type IV collagen gene expression [3] | vimentin gene expression [3] | αSMA gene expression [3] | other results
1 | COC(=O)[C@@H]1CC2=CC(=O)CC[C@]2(C)[C@@]23O[C@@H]2C[C@@]2(C)[C@@H](CC[C@@]24CCC(=O)O4)[C@H]13 [eplerenone, reference compound] | significantly improved | significantly improved | significantly improved | significantly improved | significantly improved | significantly improved | significantly reduced | significantly reduced | significantly reduced | tendency to increase | significantly reduced | could not reduce | could not reduce | could not reduce | significantly reduced | could not reduce | metabolizing enzyme (CYP3A4): mainly metabolized by CYP3A4
2 | CC(=O)S[C@@H]1CC2=CC(=O)CC[C@]2(C)[C@H]2CC[C@@]3(C)[C@@H](CC[C@@]34CCC(=O)O4)[C@H]12 [spironolactone] |  |  |  |  |  |  |  |  |  |  |  |  |  |  |  |  | accumulation of hydroxyproline (indicator of tissue fibrosis) [4]: improves
3 | CC1(C)Oc2cc(NS(C)(=O)=O)ccc2N(c2ccc(F)cc2)C1=O [compound (I)] | significantly improving | significantly improved to an extent exceeding the effect of eplerenone | significantly improving | significantly improving | significantly improved to an extent exceeding the effect of eplerenone | very significantly improved to a level of the normal group exceeding the effect of eplerenone | significantly reduced | significantly reduced | significantly reduced | tendency to decrease | significantly reduced | significantly reduced | significantly reduced | significantly reduced | significantly reduced | significantly reduced | concentration of the compound (I) in a blood plasma ([5]; 2 hours after the final administration (Day 21)): sufficient concentration; concentration of the compound (I) in a blood plasma ([5]; 18 hours after the final administration (Day 21)): sufficient concentration; concentration of the compound (I) in a blood plasma ([6]; 2 hours after the final administration (Day 21), 3, 10, 30 mg/kg oral): dose-dependent concentration; concentration of the compound (I) in a blood plasma ([6]; 24 hours after the final administration (Day 21), 30 mg/kg oral): sufficient concentration; positive rate in picrosirius red staining ([7]; left lung lobes, all the doses 3, 10, 30 mg/kg oral once a day (Groups 3-5)): significantly decreased; hydroxyproline content (μg) ([7]; 3 mg/kg oral once a day, Day 8-21 (Group 3)): significantly decreased; hydroxyproline content (μg) [7, 9]: significantly decreased; inspiratory capacity (mL) ([8]; 10 mg/kg oral once a day, Day 8-21 (Group 4)): significantly improved; inspiratory capacity (mL) [8, 9]: significantly improved; resistance (cmH2O.s/mL) [8, 9]: significantly improved; compliance (mL/cmH2O) [8, 10]: significantly improved; elastance (cmH2O/mL) [8, 10]: significantly improved
